Reference: ChEMBL document CHEMBL1201862, “PubChem BioAssay data set” (2004)
Counter-ions that a name gives are not always drawn.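 The compound was tested at five concentrations on cells cultured in 96-well plates, with a 48-hour exposure period. The concentration for 50% growth inhibition is given as GI50.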 Calls of active or inactive are those of the source. Rule as the data show it: active = GI50 up to about 1.1 µM and inactive = higher.

Tests used:
Assay in all cases: inhibition of tumour cell growth, NCI panel, 48 h
HOP-92 = test system: HOP-92
SN12C = test system: SN12C
HT-29 = test system: HT-29
NCI-H226 = test system: NCI-H226
A498 = test system: A498
NCI/ADR-RES = test system: NCI/ADR-RES
PC-3 = test system: PC-3
Malme-3M = test system: Malme-3M
SF-295 = test system: SF-295
CCRF-CEM = test system: CCRF-CEM
SK-MEL-2 = test system: SK-MEL-2
HOP-62 = test system: HOP-62
SNB-19 = test system: SNB-19
OVCAR-8 = test system: OVCAR-8
IGROV-1 = test system: IGROV-1
OVCAR-5 = test system: OVCAR-5
NCI-H23 = test system: NCI-H23
TK-10 = test system: TK-10
LOX IMVI = test system: LOX IMVI

Structure (SMILES)	GI50 (HOP-92)	GI50 (SN12C)	GI50 (HT-29)	GI50 (NCI-H226)	GI50 (A498)	GI50 (NCI/ADR-RES)	GI50 (PC-3)	GI50 (Malme-3M)	GI50 (SF-295)	GI50 (CCRF-CEM)	GI50 (SK-MEL-2)	GI50 (HOP-62)	GI50 (SNB-19)	GI50 (OVCAR-8)	GI50 (IGROV-1)	GI50 (OVCAR-5)	GI50 (NCI-H23)	GI50 (TK-10)	GI50 (LOX IMVI)
Clc1ccc(-c2noc(CN3CCCCC3)n2)cc1	> 100 µM (inactive)	> 100 µM (inactive)	46.2 µM (inactive)	> 100 µM (inactive)	> 100 µM (inactive)	46.5 µM (inactive)	> 100 µM (inactive)	> 100 µM (inactive)	66.8 µM (inactive)	77.1 µM (inactive)	> 100 µM (inactive)	> 100 µM (inactive)	> 100 µM (inactive)	> 100 µM (inactive)	> 100 µM (inactive)	> 100 µM (inactive)	> 100 µM (inactive)	> 100 µM (inactive)	–
CC1OC(OC2C(O[C@H]3CC[C@@]4(C)C(=CC[C@H]5[C@@H]6C[C@@H]7O[C@]8(CC[C@H](C)CN8)[C@@H](C)[C@@H]7[C@@]6(C)CC[C@@H]54)C3)OC(CO)C(O)C2OC2OC(CO)C(O)C(O)C2O)C(O)C(O)C1O (stereo partly drawn)	17.5 µM (inactive)	20.8 µM (inactive)	17.8 µM (inactive)	17.4 µM (inactive)	26.9 µM (inactive)	16.4 µM (inactive)	18.1 µM (inactive)	18 µM (inactive)	18.4 µM (inactive)	21.6 µM (inactive)	18.4 µM (inactive)	–	20.7 µM (inactive)	15.5 µM (inactive)	19.5 µM (inactive)	14.8 µM (inactive)	18.5 µM (inactive)	17.3 µM (inactive)	28.3 µM (inactive)
COP(=O)(/C=C/C(NC(=O)C(Cl)(Cl)Cl)c1ccccc1)OC (stereo not drawn)	> 100 µM (inactive)	> 100 µM (inactive)	> 100 µM (inactive)	> 100 µM (inactive)	> 100 µM (inactive)	> 100 µM (inactive)	> 100 µM (inactive)	> 100 µM (inactive)	> 100 µM (inactive)	–	> 100 µM (inactive)	> 100 µM (inactive)	> 100 µM (inactive)	> 100 µM (inactive)	> 100 µM (inactive)	> 100 µM (inactive)	> 100 µM (inactive)	> 100 µM (inactive)	> 100 µM (inactive)
Cc1ccccc1NC(=O)CC(=O)NNC(Sc1ccccc1)c1cc(/N=N/c2ccc(Br)cc2)ccc1O (stereo not drawn)	5.97 µM (inactive)	2.49 µM (inactive)	9.48 µM (inactive)	2.04 µM (inactive)	2.4 µM (inactive)	1.71 µM (inactive)	0.877 µM (active)	3.26 µM (inactive)	2.75 µM (inactive)	0.43 µM (active)	5.93 µM (inactive)	2.17 µM (inactive)	9.48 µM (inactive)	0.552 µM (active)	8.02 µM (inactive)	7.59 µM (inactive)	3.08 µM (inactive)	1.39 µM (inactive)	1.49 µM (inactive)
CCCCCCOc1ccc(NC2=C(Cl)C(=O)c3c(O)ccc(O)c3C2=O)cc1	2.72 µM (inactive)	1.86 µM (inactive)	2.11 µM (inactive)	3.88 µM (inactive)	4.57 µM (inactive)	2.55 µM (inactive)	3.09 µM (inactive)	1.83 µM (inactive)	5.81 µM (inactive)	2.49 µM (inactive)	2.96 µM (inactive)	1.77 µM (inactive)	3.15 µM (inactive)	2.09 µM (inactive)	–	> 10 µM (inactive)	2.4 µM (inactive)	6.32 µM (inactive)	1.67 µM (inactive)
O=C(/C=C/c1ccccc1)CCC1C(=O)NC(=O)NC1=O	> 100 µM (inactive)	> 100 µM (inactive)	> 100 µM (inactive)	> 100 µM (inactive)	> 100 µM (inactive)	> 100 µM (inactive)	> 100 µM (inactive)	> 100 µM (inactive)	> 100 µM (inactive)	–	> 100 µM (inactive)	–	> 100 µM (inactive)	> 100 µM (inactive)	> 100 µM (inactive)	> 100 µM (inactive)	> 100 µM (inactive)	> 100 µM (inactive)	> 100 µM (inactive)
Clc1ccc2oc(CCc3ccccc3)nc2c1	49.4 µM (inactive)	66.1 µM (inactive)	33.4 µM (inactive)	32.6 µM (inactive)	26.3 µM (inactive)	40.8 µM (inactive)	48.6 µM (inactive)	> 100 µM (inactive)	33.6 µM (inactive)	29.8 µM (inactive)	30.6 µM (inactive)	> 100 µM (inactive)	91.6 µM (inactive)	78.9 µM (inactive)	51.3 µM (inactive)	83.2 µM (inactive)	45.8 µM (inactive)	69.7 µM (inactive)	> 100 µM (inactive)
O=C1c2c(Br)sc(Br)c2[C@@H](O)[C@H]1O	19.2 µM (inactive)	16.3 µM (inactive)	19.1 µM (inactive)	17.6 µM (inactive)	68.1 µM (inactive)	22.4 µM (inactive)	17.5 µM (inactive)	20.4 µM (inactive)	18.1 µM (inactive)	2.32 µM (inactive)	17.1 µM (inactive)	16.9 µM (inactive)	19.5 µM (inactive)	14.1 µM (inactive)	18.2 µM (inactive)	19.9 µM (inactive)	7.21 µM (inactive)	53.7 µM (inactive)	7.13 µM (inactive)
CC(=N/NC(=S)N1CCCCC1)/C(C)=N\NC(=S)N1CCCCC1	1.48 µM (inactive)	1.69 µM (inactive)	1.93 µM (inactive)	1.57 µM (inactive)	1.5 µM (inactive)	2.42 µM (inactive)	1.86 µM (inactive)	2.08 µM (inactive)	1.71 µM (inactive)	–	1.97 µM (inactive)	1.79 µM (inactive)	1.88 µM (inactive)	2.12 µM (inactive)	1.58 µM (inactive)	1.78 µM (inactive)	2.13 µM (inactive)	1.77 µM (inactive)	3.15 µM (inactive)
CCN(CC)C(=S)SC1C(=O)NC(=O)NC1=O	> 100 µM (inactive)	> 100 µM (inactive)	> 100 µM (inactive)	> 100 µM (inactive)	0.0106 µM (active)	0.6 µM (active)	> 100 µM (inactive)	> 100 µM (inactive)	> 100 µM (inactive)	> 100 µM (inactive)	> 100 µM (inactive)	> 100 µM (inactive)	–	> 100 µM (inactive)	> 100 µM (inactive)	> 100 µM (inactive)	> 100 µM (inactive)	> 100 µM (inactive)	> 100 µM (inactive)
COC(=O)c1c(C)cccc1C1CN=NC12Cc1cccc(C)c1C2=O (stereo not drawn)	14.8 µM (inactive)	27.2 µM (inactive)	33 µM (inactive)	20.9 µM (inactive)	52 µM (inactive)	21.7 µM (inactive)	20.3 µM (inactive)	29.1 µM (inactive)	–	19.8 µM (inactive)	32.7 µM (inactive)	53.6 µM (inactive)	48.8 µM (inactive)	33.9 µM (inactive)	27.7 µM (inactive)	85.7 µM (inactive)	32.2 µM (inactive)	35 µM (inactive)	13.6 µM (inactive)
O=C(Nc1sccc1S(=O)(=O)c1ccc(Cl)cc1)C(F)(F)F	23.6 µM (inactive)	10.3 µM (inactive)	25 µM (inactive)	29.6 µM (inactive)	33.9 µM (inactive)	18.4 µM (inactive)	21.5 µM (inactive)	27.2 µM (inactive)	26.3 µM (inactive)	–	13.5 µM (inactive)	37.4 µM (inactive)	> 100 µM (inactive)	24.6 µM (inactive)	32.1 µM (inactive)	48.4 µM (inactive)	24.1 µM (inactive)	78.7 µM (inactive)	31 µM (inactive)
CC(=O)[C@H]1[C@@H](OCc2ccccc2)O[N+]([O-])=C(C)[C@@H]1c1ccccc1	24.8 µM (inactive)	–	19.6 µM (inactive)	52.1 µM (inactive)	> 100 µM (inactive)	39.1 µM (inactive)	36.1 µM (inactive)	26.4 µM (inactive)	75.2 µM (inactive)	14.9 µM (inactive)	63.2 µM (inactive)	> 100 µM (inactive)	97.3 µM (inactive)	30.4 µM (inactive)	35.8 µM (inactive)	> 100 µM (inactive)	54.7 µM (inactive)	56.1 µM (inactive)	21 µM (inactive)
O=C(O)CCNc1[nH]cnc2ncnc1-2	> 100 µM (inactive)	> 100 µM (inactive)	> 100 µM (inactive)	> 100 µM (inactive)	> 100 µM (inactive)	> 100 µM (inactive)	> 100 µM (inactive)	> 100 µM (inactive)	> 100 µM (inactive)	> 100 µM (inactive)	> 100 µM (inactive)	> 100 µM (inactive)	> 100 µM (inactive)	> 100 µM (inactive)	> 100 µM (inactive)	> 100 µM (inactive)	> 100 µM (inactive)	> 100 µM (inactive)	> 100 µM (inactive)
CC(C)C[C@H]1C(=O)N2CCC[C@H]2[C@]2(O)O[C@](NC(=O)[C@@H]3C=C4c5cccc6[nH]c(Br)c(c56)C[C@H]4N(C)C3)(C(C)C)C(=O)N12 [BROMOCRIPTINE MESYLATE]	> 100 µM (inactive)	56.1 µM (inactive)	13.6 µM (inactive)	51.2 µM (inactive)	> 100 µM (inactive)	9.35 µM (inactive)	4.17 µM (inactive)	36.5 µM (inactive)	39.8 µM (inactive)	4.56 µM (inactive)	> 100 µM (inactive)	> 100 µM (inactive)	> 100 µM (inactive)	> 100 µM (inactive)	67.5 µM (inactive)	> 100 µM (inactive)	–	15.1 µM (inactive)	> 100 µM (inactive)
